Experimental findings from patent publication US12285013B2, “Processing method for increasing seed production rate of seed fruits of Cucumis sativus L” (Yangzhou University, priority 2023, dated 2025) are described below.

The assay concerns seed fruits of Cucumis sativus L. The assay is described as follows: Soaking and dipping of female flowers of seed fruits of Cucumis sativus L. in the pollination stage. The conditions noted are these: 50 μM solution with Tween 80 10000:1, greenhouse. Format: in vivo. How it is done: A processing method for increasing seed production efficiency of seed fruits of Cucumis sativus L., comprising the following steps: • (1) Preparing a plant growth regulator according to a formula proportion; • Preparing a 5-azacytidine solution with a concentration of 50 μM, adding an emulsifier Tween 80 at the same time, and mixing the 5-azacytidine solution and the emulsifier Tween 80 at a proportion of 10000:1 to obtain the plant growth regulator; • (2) Selecting seed fruits of Cucumis sativus L. growing naturally in a greenhouse and reaching a pollination stage, and dipping female flowers thereof with the plant growth regulator prepared in step (1) before pollination; • (3) Picking male flowers for pollination after the female flowers are completely dry; • (4) Dipping the pollinated female flowers again; • (5) Conducting field routine cultivation management.
In step (2), the preserved solution of the prepared plant growth regulator is poured into any container, and the female flowers of the seed fruits of Cucumis sativus L. reaching a pollination stage are completely immersed in the plant growth regulator in the container for at least 5 seconds.
In step (2), in the greenhouse, the temperature is stabilized at 20° C.-35° C., the humidity is 70%-90%, the pH value of the cultivation soil is 6.5, a selected species of Cucumis sativus L. is a species of North China Cucumis sativus L. used for seed production, a row spacing for seed fruit cultivation is fixed at 75 cm, a planting distance is 25 cm, and the number of plants planted in each row is 80.
Step (3) is specifically as follows: picking male flowers blooming on the same plant, removing all petals, poking stamens of the male flowers into the female flowers after the female flowers soaked and dipped by the plant growth regulator are completely dry, and repeating the process for multiple times to increase pollination success rate.
Step (4) is specifically as follows: repeating the soaking and dipping treatment described in step (2) for successfully pollinated female flowers of Cucumis sativus L. on the third day after pollination.
In a third aspect of the present invention, a processing method for increasing seed production efficiency of seed fruits of Cucumis sativus L. is provided, which mainly comprises the following steps: • (1) Preparing a reagent. Specifically: preparing a 5-azacytidine solution with a concentration of 50 μM, adding an emulsifier Tween 80 at the same time according to a proportion of 10000:1, and preserving the reagent in a refrigerator at 4° C. • (2) Selecting seed fruits of Cucumis sativus L. growing naturally in a greenhouse and reaching a pollination stage, and dipping female flowers thereof with the reagent prepared in step (1) before pollination. […]

Setting [1] is: female flowers dipped before pollination and on the third day after.

SMILES strings stand for the structures.

As for `Nc1ncn([C@@H]2O[C@H](CO)[C@@H](O)[C@H]2O)c(=O)n1` [5-azacytidine], under setting [1], the “fruit length of the seed fruits” value is on record as “significantly reduced”, the “number of seeds of the seed fruits” value is “without affecting” and the “seed production efficiency of the seed fruits” value is given as “increased”. For the same compound, for the setting “female flowers treated in the pollination stage”, the “weight of Cucumis sativus L. (fruit weight)” value is on record as “significantly reduce”.
